Results taken from patent publication US12097210B2, “Concomitant administration of glucocorticoid receptor modulators and CYP3A inhibitors” (Corcept Therapeutics, Inc., priority 2017, dated 2024).

Assays:
[1] = Example 1: effect of oral ketoconazole (400 mg OD or 200 mg BID) on plasma pharmacokinetics of a 300 mg single dose of mifepristone, fasted; format: in vivo, human; settings: Keto 200 mg BID vs 400 mg OD
Source text: This study was an open-label study in healthy male subjects.
Healthy male volunteers between the ages of 18 to 45 years of age with a body mass index (BMI) ranging between 19 and 32 kg/m2 and a weight of at least 60 kg (132 lbs) were enrolled. Subjects had no clinically significant abnormal findings on the physical examination, ECG, blood pressure, heart rate, medical history, or clinical laboratory results during screening. The QTc interval at screening was less than 450 msec.
In cohort 1, six subjects received ketoconazole 400 mg OD for 14 days.
Subjects remained in the clinic on Days 2 and 3 to receive 400 mg OD oral ketoconazole fasted, and for safety evaluation and collection of blood pharmacokinetic (PK) samples. Subjects were discharged from the clinic on Day 4 following administration of 400 mg OD oral ketoconazole fasted, and returned to the clinic the mornings of Days 5 through 13 to receive 400 mg OD oral ketoconazole fasted.
In cohort 2, six subjects received ketoconazole 200 mg BID for 14 days. […] All 12 subjects completed the study. […]
Subjects in both cohorts returned to the study center on Day 15 for safety monitoring, and completion of the Termination Visit procedures, followed by discharge from the study. Safety was assessed by spontaneously reported adverse events, physical examinations, and routine clinical laboratory tests. […]

[2] = Example 1: safety (adverse events, physical examinations, clinical laboratory tests, ECG); format: in vivo, human; settings: mifepristone 300 mg single dose with ketoconazole for 14 days
Method: Subjects in both cohorts returned to the study center on Day 15 for safety monitoring, and completion of the Termination Visit procedures, followed by discharge from the study. Safety was assessed by spontaneously reported adverse events, physical examinations, and routine clinical laboratory tests. To the extent possible, any adverse events deemed study drug-related and that were ongoing at the time of discharge from the study were followed-up to resolution or until a determination is made that the unresolved event was stable.

[3] = Example 2: safety (adverse events, physical examinations, laboratory tests); format: in vivo, human
Method: Safety was assessed by spontaneously reported adverse events, physical examinations, and routine clinical laboratory tests. Adverse event data were tabulated. Physical findings and laboratory test results were listed by subject.

[4] = Example 3: effect of ketoconazole 200 mg twice daily on PK of mifepristone 600 mg once daily and metabolites, with food; format: in vivo, human
Method: (§1) A single dose of ketoconazole was administered on Day −1.
The study was a two period study design.
Concentrations of RU 42633 and RU 42848 were similar on Day 17 and Day 12.

[5] = Example 3: cross-study comparison of exposure with historic study of 1200 mg mifepristone OD; format: in vivo, human
[6] = Example 3: safety (adverse events, laboratory tests, vital signs, ECGs); format: in vivo, human
Method: as §1

clinical = settings: male, human, in vivo
Method: This study was conducted in accordance with Good Clinical Practice under the guidance of an Institutional Review Board and in accordance with applicable local legal and regulatory requirements.
KORLYM® was supplied in 300 mg tablets for oral administration. Three or four tablets were administered once daily (OD) to provide either the 900 mg or 1200 mg per day dose.
Itraconazole was supplied • in 100 mg capsules for oral administration. Two capsules were administered once daily (OD) to provide the 200 mg per day dose.
All drug administrations were oral and were given after the morning meal.
The inclusion criteria required, among other criteria, that the subjects be healthy male subjects between the ages of 18 and 65, weigh more than 110 pounds, and have a body mass index (BMI) of 18 to 32 kg/m^2. The design included a Screening Period of up to 3 weeks (subjects were screened at a time between days −21 to −1 prior to the first treatment period), three 14-day treatment periods, and a Follow-Up (FU) Period of 14 days for safety observation.
Subjects meeting the inclusion criteria (n=22) were administered drug daily and blood samples were taken on the days indicated below during Periods 1-3 and on day 43 of the follow-up period.
Subjects presented at the Clinical Research Unit (CRU) after an 8-hour overnight fast, then predose PK samples were taken and other evaluations (predose electrocardiograms (ECGs), plasma cortisol and ACTH, serum chemistry tests) were performed. […] On the specific days indicated above, additional blood draws for determining 24-hour PK profiles were performed.
Pharmacokinetic (PK) parameters measured and computed included AUC (area under the concentration−time curve), AUC0-24 (AUC values from time 0 to 24 hours postdose), Cmax (maximum concentration), and Css (average steady-state concentration, calculated as AUC0-24/24).

[7] = Examples 5-8: liver function of patient with excess cortisol on ketoconazole and reduced mifepristone dose; format: in vivo, human
[8] = Test: Day 17, 600 mg mifepristone OD + 200 mg Ketoconazole BID, Reference: Day 12, 600 mg mifepristone OD, geometric mean ratio
[9] = Test: Day 17, 600 mg mifepristone OD + 200 mg Ketoconazole BID, Reference: historic study Day 7, 1200 mg mifepristone OD alone, after 34% fat meal
[10] = mifepristone 600 mg OD Days 1-17, ketoconazole 200 mg BID Days 13-17

SMILES: CC#C[C@]1(O)CC[C@H]2[C@@H]3CCC4=CC(=O)CCC4=C3[C@@H](c3ccc(N(C)C)cc3)C[C@@]21C [Mifepristone, 11β-(4-dimethylaminophenyl)-17β-hydroxy-17α-(1-propynyl)-estra-4,9-dien-3-one]
- Mean Ratio AUCtotal (C2/C1) ([1]; geometric mean ratio (AUCinf in text)): 1.05
- Mean Ratio Cmax (C2/C1) ([1]; geometric mean ratio): 1.15
- subjects experiencing at least one treatment emergent adverse event (TEAE) ([2]; 12 subjects): 25%
- SAE or AE resulting in discontinuation [2]: No subject experienced an SAE or an AE that resulted in discontinuation from the study
- TEAEs considered by the investigator to be related to the drug [2]: No TEAE was considered by the investigator to be related to Mifepristone
- changes in ECG parameters [2]: No clinically significant changes in any ECG parameter
- changes in laboratory test results [2]: Minimal changes in laboratory test results
- TEAEs considered possibly or probably related to mifepristone administration ([3]; four subjects in Cohort 2 (600 mg OD)): dizziness, nausea, vomiting, dry mouth, and rash
- subjects experiencing at least 1 TEAE ([3]; twelve subjects, mifepristone 300 or 600 mg OD 8 days, ketoconazole 400 mg Day 8): 50%
- concentrations on Day 17 compared with Day 12 ([4]; 600 mg mifepristone daily with 200 mg ketoconazole twice daily vs mifepristone alone): higher
- trough concentrations through the start of ketoconazole administration (Day 13) ([4]; FIG. 1, 600 mg mifepristone OD): increasing day-by-day
- difference of time 0 (pre-dose) plasma concentration, Day 17 vs Day 12 ([4]; FIG. 2, before and after inhibition of CYP3A by ketoconazole): ~500 ng/mL
- Ratio % Test/Reference, AUC0-24 [4, 8]: 138.01%
- Ratio % Test/Reference, Cmax [4, 8]: 127.59%
- exposures as percent of those observed following the highest labeled dose of mifepristone (1200 mg daily) ([5]; 600 mg mifepristone OD + 200 mg ketoconazole BID): approximately 85%
- Ratio % Test/Ref, AUC0-24 [5, 9]: 87.27%
- Ratio % Test/Ref, Cmax [5, 9]: 84.64%
- discontinuation due to AEs ([6]; during the mifepristone-only treatment period (moderate hypertension; moderate bilateral rash)): Two subjects discontinued due to AEs
- subjects with at least one TEAE ([6]; during the mifepristone/ketoconazole treatment period): 57.1%
- subjects with at least one TEAE ([6]; during treatment with mifepristone alone (600 mg OD)): 55.6%
- deaths or SAEs [6, 10]: No deaths or SAEs were reported
- severe TEAEs [6, 10]: No severe TEAEs were reported
- AUC(0-t) (clinical; 900 mg): 59600 ng·h/mL
- Cmax, Geometric Means (clinical; 900 mg): 3550 ng/mL
- AUC(0-24), Geometric Means (clinical; 1200 mg): 67,700
- Cmax (clinical; 1200 mg): 4360 ng/mL
- liver function of the patient ([7]; Example 5: mifepristone reduced from 1200 mg to 900 mg daily with ketoconazole): not significantly compromised
- liver function of the patient ([7]; Example 6: mifepristone reduced from 900 mg to 600 mg daily with ketoconazole): not significantly compromised
- liver function of the patient ([7]; Example 7: mifepristone reduced from 600 mg to 300 mg daily with ketoconazole): not significantly compromised
- liver function of the patient ([7]; Example 8: mifepristone reduced from 1500 mg to 1200 mg daily with ketoconazole): not significantly compromised
